Experimental findings from patent US8389545B2, “Quinolone M1 receptor positive allosteric modulators” (Merck, Sharp & Dohme, Corp., priority 2005, dated 2013) are described below.

This test addresses T1, acetylcholine muscarinic M1 receptor (Homo sapiens, UniProt P11229).
T1 construct: expressed in transfected cells; host or cells: CHOnfat cells (CHO; Geneticin selection)
T1 sequence (P11229 1-460): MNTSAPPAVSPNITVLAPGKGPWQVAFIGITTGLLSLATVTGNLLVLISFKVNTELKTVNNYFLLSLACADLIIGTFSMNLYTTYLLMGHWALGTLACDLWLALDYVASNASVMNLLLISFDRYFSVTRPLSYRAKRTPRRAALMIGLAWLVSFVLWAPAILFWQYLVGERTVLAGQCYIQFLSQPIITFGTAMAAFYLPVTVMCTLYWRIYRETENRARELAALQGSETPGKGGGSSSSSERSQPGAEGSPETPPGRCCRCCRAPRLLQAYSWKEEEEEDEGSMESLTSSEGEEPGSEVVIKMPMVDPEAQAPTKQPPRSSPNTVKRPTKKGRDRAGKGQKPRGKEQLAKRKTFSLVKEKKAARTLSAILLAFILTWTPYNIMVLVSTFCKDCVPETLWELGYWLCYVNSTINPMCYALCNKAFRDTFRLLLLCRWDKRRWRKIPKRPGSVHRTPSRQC
Description: muscarinic FLIPR assay: intracellular calcium in CHOnfat/hM1 cells with EC20 acetylcholine. The test is classed as cell-based. To be noted: FLIPR Ca2+, 4 min preincubation then EC20 acetylcholine (3 nM final). How it is done:
The assay studies the effect of one or several concentrations of test compounds on basal or acetylcholine-stimulated Ca^2+ levels using FLIPR.
Compounds are prepared and subjected to a preincubation period of 4 min. Thereafter, a single EC20 concentration of acetylcholine is added to each well (3 nM final). The intracellular Ca^2+ level of each sample is measured and compared to an acetylcholine control to determine any modulatory activity.
Cells: CHOnfat/hM1, hM2, hM3 or hM4 cells are plated 24 hr before the assay at a density of 18,000 cells/well (100 μL) in a 384 well plate. CHOnfat/hM1 and CHOnfat/hM3 Growth Medium: 90% DMEM (Hi Glucose); 10% HI FBS; 2 mM L-glutamine; 0.1 mM NEAA; Pen-Strep; and 1 mg/ml Geneticin, are added. For M2Gqi5CHOnfat and M4Gqi5CHOnfat cells, an additional 600 ug/ml hygromycin is added.
Equipment: 384 well plate, 120 μL addition plate; 96-well Whatman 2 ml Uniplate Incubator, 37° C., 5% CO2; Skatron EMBLA-384 Plate Washer; Multimek Pipetting System; Genesis Freedom 200 System; Mosquito System; Temo Nanolitre Pipetting System; and FLIPR^384 Fluorometric Imaging Plate Reader System are used.
Buffers. Assay Buffer: Hanks Balanced Salt Solution, with 20 mM Hepes, 2.5 mM Probenecid (Sigma P-8761) first dissolved in 1N NaOH, 1% Bovine Serum Albumin (Sigma A-9647). Dye Loading Buffer: Assay Buffer plus 1% Fetal Bovine Serum and Fluo-4AM/Pluronic Acid Mixture. 2 mM Fluo-4AM ester stock in DMSO (Molecular Probes F-14202) Concentration of 2 uM in buffer for a final concentration of 1 μM in Assay. 20% Pluronic Acid Solution stock, with concentration of 0.04% in Buffer, 0.02% in Assay.
65 μL of 2 mM Fluo-4AM are mixed with 130 μL of 20% Pluronic Acid. The resulting solution and 650 μL FBS is added to the assay buffer for a total volume of 65 mL. Positive Controls: 4-Br-A23187: 10 mM in DMSO; final concentration 10 μM. Acetylcholine: 10 mM in water, working stock at both 20 uM and 30 uM in assay buffer, final concentration of 10 μM. This is used to check the maximum stimulation of the CHOK1/hM1 cells. 20 uM (2×) acetylcholine is added in the preincubation part of the assay, and the 30 uM (3×) stock is added in the second part. (EC20) Acetylcholine: 10 mM in water, working stock of 9 nM (3×), and final concentration in assay is 3 nM. This is used after the preincubation with test compounds. Addition of the EC20 Acetylcholine to each well with a test compound will ascertain any modulator activity. 24 wells contain 3 nM Acetylcholine alone as a control.
Determining Activity of Putative Compounds: Screening Plate: Compounds are titrated in 96-well plates (columns 2-11), 100% DMSO, started at a concentration of 15 mM (150× stock concentration), and 3-fold serial dilutions using Genesis Freedom200 System. Four 96-well plates are combined into a 384-well plate using Mosquito Nanolitre Pipetting System by transferring 1 ul of serial diluted compounds to each well, and 1 mM acetylcholine (100× stock concentration) were added as a control. Using Temo, 49 μl assay buffer is added to each well of the 384-well plate right before assay.
In a 96-well Whatman 2 ml Uniplate, 9 nM Acetylcholine (3×) is pipetted into wells corresponding to the screening compounds, and into control wells. The 30 uM acetylcholine control (3×) is added into control wells, and the 3× agonist plate is transferred into a 384 well plate. Cells are washed three times with 100 μL of buffer, leaving […] of buffer in each well. Using Multimek, 30 μL of Dye Loading Buffer is added into each well and incubated at 37° C., 5% CO2 for up to one hr.
After 60 min, the cells are washed three times with 100 μL of buffer, leaving 30 μL of buffer in each well. The cell plate, screening plate, and agonist addition plates are placed on the platform in the FLIPR and the door closed. A signal test to check background fluorescence and basal fluorescence signal is performed. Laser intensity is adjusted if necessary. […]
On the technique in general: A change in cytosolic calcium serves as a functional read-out for many receptors and channels.
As to `COc1cccc(Cn2cc(C(=O)O)c(=O)c3c(F)ccc(F)c32)c1` [Example 2, 5,8-difluoro-1-(3-methoxybenzyl)-4-oxo-1,4-dihydroquinoline-3-carboxylic acid], the half-maximal effective concentration (EC50) – broadly, the concentration needed to bring the measured effect to its halfway point – came to 4200 nM.

Turning to `O=C(O)c1cn(Cc2c(F)cccc2F)c2c(F)ccc(F)c2c1=O` [Example 4, 1-(2,6-difluorobenzyl)-5,8-difluoro-4-oxo-1,4-dihydroquinoline-3-carboxylic acid], the EC50 stood at 614 nM.

In the case of `COc1ccc(Cn2cc(C(=O)O)c(=O)c3cccc(F)c32)cc1` [Example 5, 8-fluoro-1-(4-methoxybenzyl)-4-oxo-1,4-dihydroquinoline-3-carboxylic acid], the EC50 stood at 1150 nM.

As for `COc1ccc(Cn2cc(C(=O)O)c(=O)c3cccc(F)c32)cc1C(F)(F)F` [Example 44, 8-fluoro-1-[4-methoxy-3-(trifluoromethyl)benzyl]-4-oxo-1,4-dihydroquinoline-3-carboxylic acid], the EC50 is 793 nM.

With `O=C(O)c1cn(Cc2ccc(C(F)(F)F)cc2)c2c(F)cccc2c1=O` [Example 52, 8-fluoro-4-oxo-1-[4-(trifluoromethyl)benzyl]-1,4-dihydroquinoline-3-carboxylic acid], the EC50 is 975 nM.

For the compound `O=C(O)c1cn(Cc2ccc(O)cc2)c2ccccc2c1=O` [Example 71, 1-(4-hydroxybenzyl)-4-oxo-1,4-dihydroquinoline-3-carboxylic acid], the EC50 came to 389 nM.
